Laboratory results taken from patent US20230190774A1, “METHOD OF USING SUBSTRATES OF AKR1Bl/AKR1B10 AS ANTI-CANCER DRUGS” (Beijing Normal University Hong Kong Baptist University …, priority 2015, published 2023).
“Also recorded” adds a separate entry of the source. Blank lines part the entries; values can stand above or below the compound they belong to.

What was measured:
CaCo2 cells [1] = experiment: Cytotoxicity assay (cell survival rate, MTT); type: cell-based; settings: for Protection against 2DG toxicity by AKR1Bs inhibitor (survival rate): inhibitor 24 h, then 2DG (20 mM) for additional 48 h
Experimental: (§1) HepG2 cells, SKOV3 cells, HCT116 cells and CaCo2 cells were cultured in DMEM medium, SW480 cells in 1640 medium, and HT29 cells in McCoy’s 5A medium. All cell culture media were supplemented with 10% FBS, 1% PSN, and cells were cultured in a humidified incubator containing 5% CO2 at 37° C. In cytotoxicity assays, cells were seeded at 1 × 10^5 cells/well in 96 well plates with full medium. In GSH assay and Western blot analysis, cells were seeded at 3× 10^6 cells/well in 6 well plates.
(§2) The AKR1Bs substrates’ cytotoxicity was assessed by cell survival rate using MTT assay. After the cells were treated with the substrates for the length of time indicated, MTT was added to a final concentration of 0.5 mg/ml in each well of a 96-well plate, and the plates were incubated at 37° C. for 4 hour. Then DMSO was added to dissolve the formazan product, the amount of which is proportional to the number of live cells. The absorbance of dissolved dye was measured at 540 nm using an automatic microplate reader.

HCT116 cells [2] = experiment: Cytotoxicity assay (cell survival rate, MTT); type: cell-based; settings: for Protection against 2DG toxicity by AKR1Bs inhibitor (survival rate): inhibitor 24 h, then 2DG (20 mM) for additional 48 h
Experimental: as §1, §2

HepG2 cells [3] = experiment: Cytotoxicity assay (cell survival rate, MTT); type: cell-based; settings: for Protection against 2DG toxicity by AKR1Bs inhibitor (survival rate): inhibitor 24 h, then 2DG (20 mM) for additional 48 h
Experimental: as §1, §2

SKOV3 cells [4] = experiment: Cytotoxicity assay (cell survival rate, MTT); type: cell-based; settings: for Protection against 2DG toxicity by AKR1Bs inhibitor (survival rate): inhibitor 24 h, then 2DG (20 mM) for additional 48 h
Experimental: as §1, §2

CaCo2 cells [5] = experiment: GSH assay of cell lysates; type: cell-based; settings: for Restoration of GSH level in 2DG treated cells by AKR1Bs inhibitor: inhibitor (40 µM) 24 h, then 2DG (20 mM) 48 h
Experimental: as §1
(§3) The cells were washed in cold PBS and then scraped into 300 µL of PBS. The cells were disrupted by ultrasonicator on ice followed by centrifuged at 3500 rpm at 4° C. The supernatant was transferred to a fresh tube and used for GSH assay using GSH assay kit. The concentrations of GSH in cell lysates were determined using the standard GSH calibration curve. The GSH detection for each sample was performed at least three times.

HCT116 cells [6] = experiment: GSH assay of cell lysates; type: cell-based; settings: for Restoration of GSH level in 2DG treated cells by AKR1Bs inhibitor: inhibitor (40 µM) 24 h, then 2DG (20 mM) 48 h
Experimental: as §1, §3

HepG2 cells [7] = experiment: GSH assay of cell lysates; type: cell-based
Experimental: as §1, §3

SKOV3 cells [8] = experiment: GSH assay of cell lysates; type: cell-based
Experimental: as §1, §3

HT29 cells = experiment: Cytotoxicity assay (cell survival rate, MTT); type: cell-based; settings: substrate alone, 2DG for 72 hours
Experimental: as §2, with “HepG2 cells, SKOV3 cells, HCT116 cells and CaCo2 cells were cultured in DMEM medium, SW480 cells in 1640 medium, and HT29 cells in McCoy’s 5A medium. […] In cytotoxicity assays, cells were seeded at 1 × 10^5 cells/well in 96 well plates with full medium. In GSH assay and Western blot analysis, cells were seeded at 3× 10^6 cells/well in 6 well plates. The AKR1Bs” for “The AKR1Bs”

SW480 cells = experiment: Cytotoxicity assay (cell survival rate, MTT); type: cell-based; settings: substrate alone, 2DG for 72 hours
Experimental: as §2, with “HepG2 cells, SKOV3 cells, HCT116 cells and CaCo2 cells were cultured in DMEM medium, SW480 cells in 1640 medium, and HT29 cells in McCoy’s 5A medium. […] In cytotoxicity assays, cells were seeded at 1 × 10^5 cells/well in 96 well plates with full medium. In GSH assay and Western blot analysis, cells were seeded at 3× 10^6 cells/well in 6 well plates. The AKR1Bs” for “The AKR1Bs”

AKR1B1 [9] = molecular target: T1, AKR1B1 (Homo sapiens, UniProt P15121); experiment: Enzyme activity assay (NADPH oxidation), purified AKR1B1; type: biochemical; settings: 20 mM substrate, pH 6.2, 30° C.
Experimental: (§4) Assay of AKR1B1 and AKR1B10 enzymes activities were conducted in 1 ml of the reaction mixture containing 135 mM sodium phosphate buffer (pH 6.2 for AKR1B1 or pH 7.0 for AKR1B10), 0.2 mM NADPH, 0.3 M ammonium sulfate, 2 µg purified protein and 20 mM of their substrate as indicated. The reaction mix was incubated at 30° C. for 30 minutes (min). Protein-free blank controls were included. The decrease of NADPH was monitored by spectrophotometer at 340 nm. Enzyme activity was calculated as the amount of NADPH oxidized/min/mg of protein (Shen Y et al., Chem Biol Interact. 2011, 191(1-3): 192-198).

AKR1B10 [10] = molecular target: T2, AKR1B10 (Homo sapiens, UniProt O60218); experiment: Enzyme activity assay (NADPH oxidation), purified AKR1B10; type: biochemical; settings: 20 mM substrate, pH 7.0, 30° C.
T2 sequence (O60218 whole entry): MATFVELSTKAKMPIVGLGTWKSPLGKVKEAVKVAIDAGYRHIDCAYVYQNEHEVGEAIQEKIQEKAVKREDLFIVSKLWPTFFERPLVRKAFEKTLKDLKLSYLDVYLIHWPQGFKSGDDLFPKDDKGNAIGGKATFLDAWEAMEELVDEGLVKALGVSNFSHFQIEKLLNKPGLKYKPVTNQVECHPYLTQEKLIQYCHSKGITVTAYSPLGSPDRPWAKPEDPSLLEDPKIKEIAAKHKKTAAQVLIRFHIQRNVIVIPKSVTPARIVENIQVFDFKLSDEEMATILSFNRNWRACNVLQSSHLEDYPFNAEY
Experimental: as §4

AKR1B1 [11] = molecular target: T1, AKR1B1; settings: ND = no detectable activity or less than 32 nmol/min/mg; cited from earlier work
AKR1B10 [12] = molecular target: T2, AKR1B10; settings: ND = no detectable activity or less than 32 nmol/min/mg; cited from earlier work
glycolysis = settings: background statement; cited from earlier work
[13] = inhibitor (40 µM) 24 h, then 2DG (20 mM) 48 h
[14] = substrate alone, 2DG for 72 hours

SMILES: NC(=O)[C@@H]1C[C@]2(NC(=O)NC2=O)c2cc(F)ccc2O1 [Fidarestat]
- Protection against 2DG toxicity by AKR1Bs inhibitor (survival rate) (CaCo2 cells [1]): protected
- Protection against 2DG toxicity by AKR1Bs inhibitor (survival rate) (HCT116 cells [2]): protected
- Protection against 2DG toxicity by AKR1Bs inhibitor (survival rate) (HepG2 cells [3]): less effective in protecting
- Protection against 2DG toxicity by AKR1Bs inhibitor (survival rate) (SKOV3 cells [4]): less effective in protecting
- Restoration of GSH level in 2DG treated cells by AKR1Bs inhibitor (CaCo2 cells [5]): able to increase
- Restoration of GSH level in 2DG treated cells by AKR1Bs inhibitor (HCT116 cells [6]): able to increase

SMILES: COc1ccc2c(C(=S)N(C)CC(=O)O)cccc2c1C(F)(F)F [Tolrestat]
- Protection against 2DG toxicity by AKR1Bs inhibitor (survival rate) (CaCo2 cells [1]): dose-dependently protected
- Protection against 2DG toxicity by AKR1Bs inhibitor (survival rate) (HCT116 cells [2]): dose-dependently protected
- Protection against 2DG toxicity by AKR1Bs inhibitor (survival rate) (HepG2 cells [3]): dose-dependently protected
- Protection against 2DG toxicity by AKR1Bs inhibitor (survival rate) (SKOV3 cells [4]): dose-dependently protected
- Restoration of GSH level in 2DG treated cells by AKR1Bs inhibitor (CaCo2 cells [5]): significantly restored
- Restoration of GSH level in 2DG treated cells by AKR1Bs inhibitor (HCT116 cells [6]): significantly restored
- Restoration of GSH level in 2DG treated cells by AKR1Bs inhibitor (HepG2 cells [7]; [13]): significantly restored
- Restoration of GSH level in 2DG treated cells by AKR1Bs inhibitor (SKOV3 cells [8]; [13]): significantly restored

- Efficiency as substrate of AKR1B1 (rate of NADPH depletion) (AKR1B1 [9]): then 2DG
- Efficiency as substrate of AKR1B1 (rate of NADPH depletion) (AKR1B1 [9]; listed as 2 DG): worst substrate among the three
- Efficiency as substrate of AKR1B10 (rate of NADPH depletion) (AKR1B10 [10]): then 2DG
- Efficiency as substrate of AKR1B10 (rate of NADPH depletion) (AKR1B10 [10]; listed as 2 DG): worst substrate among the three
SMILES: O=CC[C@@H](O)[C@H](O)[C@H](O)CO [2DG, 2-deoxyglucose]
- Cytotoxicity of AKR1Bs substrate (cell survival rate) (CaCo2 cells [1]; [14]): more sensitive to 2DG than HepG2 and SKOV3
- Cytotoxicity of AKR1Bs substrate (cell survival rate) (HCT116 cells [2]; [14]): more sensitive to 2DG than HepG2 and SKOV3
- Cytotoxicity of AKR1Bs substrate (cell survival rate) (HepG2 cells [3]; [14]): more sensitive; also recorded: not as efficient as glyceraldehyde and diacetyl
- Cytotoxicity of AKR1Bs substrate (cell survival rate) (SKOV3 cells [4]; [14]): more sensitive; also recorded: not as efficient as glyceraldehyde and diacetyl
- Cytotoxicity of AKR1Bs substrate (cell survival rate) (HT29 cells): more resistant
- Cytotoxicity of AKR1Bs substrate (cell survival rate) (SW480 cells): more resistant
- GSH level in the presence of 2DG (CaCo2 cells [5]; 2DG (20 mM) 48 h): decreased significantly
- GSH level in the presence of 2DG (HCT116 cells [6]; 2DG (20 mM) 48 h): decreased significantly
- GSH level in the presence of 2DG (HepG2 cells [7]; 2DG (20 mM) 48 h): decreased significantly
- GSH level in the presence of 2DG (SKOV3 cells [8]; 2DG (20 mM) 48 h): decreased significantly
- AKR1B1 activity, amount of NADPH (nmol) oxidized per min per mg of protein (AKR1B1 [11]): 149 nmol/min/mg
- AKR1B10 activity, amount of NADPH (nmol) oxidized per min per mg of protein (AKR1B10 [12]): 87 nmol/min/mg
- Inhibition of glycolysis (glycolysis): 15-40%

SMILES: O=C[C@H](F)[C@@H](O)[C@H](O)[C@H](O)CO [2FDG, 2-fluorodeoxy-D-glucose]
- Potency as glycolysis inhibitor relative to 2DG (glycolysis): more potent glycolysis inhibitor than 2DG
